In the experiment the target is T1, human olfactory receptor 1A2 (hOR1A2) (Homo sapiens, UniProt Q9Y585).
T1 construct: gene OR1A2; hOR1A2 expressed in E. coli, purified and embedded in MSP1E3D1 nanodiscs
T1 sequence (Q9Y585 1-309): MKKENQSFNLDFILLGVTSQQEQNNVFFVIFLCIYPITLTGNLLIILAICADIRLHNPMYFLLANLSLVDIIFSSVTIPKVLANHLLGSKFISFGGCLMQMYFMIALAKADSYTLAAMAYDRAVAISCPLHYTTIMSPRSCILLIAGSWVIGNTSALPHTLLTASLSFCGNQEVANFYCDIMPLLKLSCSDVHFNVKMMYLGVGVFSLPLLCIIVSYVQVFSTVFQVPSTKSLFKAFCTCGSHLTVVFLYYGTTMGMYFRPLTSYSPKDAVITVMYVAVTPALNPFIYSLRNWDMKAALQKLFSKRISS
Briefly: nanodisc-functionalized floating-electrode CNT-FET biosensor, equilibrium (association) constant from Hill-Langmuir fit; also HEK-293 luciferase assay (Kd […]). Type of experiment: binding. To be noted: read-out: nanodisc-functionalized floating-electrode CNT-FET biosensor, equilibrium (assoc) (converted).

Results on one molecule are retold here after publication PMC6141559, “Human-like smelling of a rose scent using an olfactory receptor nanodisc-based bioelectronic nose” (Scientific Reports, 2018).

Regarding `CC(C)=CCCC(C)CCO` (stereo not shown) [citronellol], the Kd is 385 nM.
